Test results published in PubChem BioAssay (NCI).
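Growth conditions: 96-well plates. Treatment: test compound, 48 hours, 5 concentrations. Analysis: linear interpolation between bracketing concentrations; unreached endpoints set to highest concentration. GI50 = concentration required for 50% inhibition of growth. TGI: total growth inhibition.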

How the values were obtained:
Experiment in all cases: NCI tumour cell line growth inhibition, 48 h
A549 NSCLC = tested on: A549 NSCLC
CAKI-1 renal = tested on: CAKI-1 renal
COLO 205 colon = tested on: COLO 205 colon
DU-145 prostate = tested on: DU-145 prostate
EKVX NSCLC = tested on: EKVX NSCLC
HCT-116 colon = tested on: HCT-116 colon
NCI-H460 lung = tested on: NCI-H460 lung
PC-3 prostate = tested on: PC-3 prostate
SN12C renal = tested on: SN12C renal
SNB-75 CNS = tested on: SNB-75 CNS

Cc1cccc(-c2[nH]ncc2-c2ccc3ncccc3n2)n1
GI50 (A549 NSCLC): 9.27 µM | TGI (A549 NSCLC): > 25 µM | GI50 (CAKI-1 renal): > 19 µM | TGI (CAKI-1 renal): > 25 µM | GI50 (COLO 205 colon): 6.31 µM | TGI (COLO 205 colon): 16.7 µM | GI50 (DU-145 prostate): 12.8 µM | TGI (DU-145 prostate): > 25 µM | GI50 (EKVX NSCLC): > 20.7 µM | TGI (EKVX NSCLC): > 25 µM | GI50 (HCT-116 colon): 7.78 µM | TGI (HCT-116 colon): > 25 µM | GI50 (NCI-H460 lung): 8.76 µM | TGI (NCI-H460 lung): > 25 µM | GI50 (PC-3 prostate): > 17.3 µM | TGI (PC-3 prostate): > 25 µM | GI50 (SN12C renal): 9.64 µM | TGI (SN12C renal): > 25 µM | GI50 (SNB-75 CNS): 5.74 µM | TGI (SNB-75 CNS): > 23.9 µM
